Reference: US12202861B2, “Inducible, tunable, and multiplex human gene regulation using CRISPR-Cpf1” (The General Hospital Corporation, priority 2017, dated 2025)

Experiments:
Type in all cases: cell-based, human
HBB = assay: RT-qPCR activation of endogenous HBB gene promoter in HEK293 cells; conditions: single crRNA
Experimental: (§1) FIGS. 1A-1E. Targeted human endogenous gene regulation using individual crRNAs with dLbCpf1-based activators • (A) Schematic showing direct dLbCpf1-VPR and dLbCpf-p65 activator fusion proteins. • (B) Activities of dLbCpf1-p65 or dLbCpf1-VPR using single crRNAs at three endogenous human genes (HBB, AR, and NPY1R) in human HEK293 cells. Relative activation of the indicated gene promoters was measured by RT-qPCR. Three separate individual crRNAs were targeted within promoter sequence 1 kb upstream of the transcription start site for each gene. Relative mRNA expression is calculated by comparison to the control sample in which no crRNA is expressed. (C) Analysis of various crRNAs targeted to the human CD5 and CD22 promoters. 32 crRNAs (16 for each gene) were designed to target sites located within promoter sequences 1 kb upstream or 500 bps downstream of the TSS of each gene. Repetitive sequences were not targeted. After 72 hours post-transfection, cells were stained with fluorescently labeled antibody for CD5 or CD22 protein and fluorescent-positive cells were quantified by flow cytometry. Error bars represent s.e.m. for three biological replicates. […] (D) Schematic illustrating drug-inducible bi-partite dLbCpf1-based activator fusion proteins. dLbCpf1 is fused to one to four DmrA domains and VPR or p65 is fused to a DmrC domain. Because DmrA and DmrC interact only in the presence of an A/C-heterodimerizer drug (red diamond), the bi-partite activator is only reconstituted in the presence of the drug. (E) Activities of drug-inducible bi-partite dLbCpf1-based activators using single crRNAs at three endogenous human genes (HBB, AR, and NPY1R) in human HEK293 cells. Relative activation of the indicated gene promoters was measured by RT-qPCR. […] Data shown in (B) and (E) represent three biological independent replicates and error bars indicate standard deviation (SD) of three technical replicates.
(§2) (A) Schematic of an expression cassette designed to express multiple gRNAs encoded on a single transcript. The arrows indicate cleavage sites being processed by the RNase activity of dLbCpf1. (B) Schematic illustrating multiplex expression of three crRNAs each targeted to a different endogenous gene promoter in a single cell. (C) Simultaneous activation of three endogenous human genes using crRNAs expressed from a multiplex transcript or from individual transcripts with dLbCpf1-VPR direct fusions (left panel), dLbCpf1-DmrA(×4) and DmrC-VPR fusions (middle panel), and dLbCpf1-DmrA(×4) and DmrC-p65 fusions (right panel). Transcripts were measured in HEK293 cells using RT-qPCR with relative mRNA expression calculated by comparison to the control sample in which no crRNA is expressed. (D) Activities of MST crRNA with different dLbCpf1-based activators in human U20S cells. Graphs showing activation of three endogenous human genes with dLbCpf1-VPR direct fusions, dLbCpf1-DmrA(×4) and DmrC-p65 fusions, and dLbCpf1-DmrA(×4) and DmrC-VPR fusions and crRNAs expressed from a multiplex single transcript (MST) or from transcripts encoding a single crRNA. RNA expression was measured by RT-qPCR and relative expression shown was calculated by comparison to a control sample in which no crRNA is expressed. (E) Schematic illustrating multiplex expression of three crRNAs each targeted to the same endogenous gene promoter in the same cell. (F) Activities of direct dLbCpf1-p65 or dLbCpf1-VPR fusions with sets of three crRNAs expressed from a multiplex transcript or from individual transcripts on the HBB, AR, or NPY1R endogenous gene promoters. Transcripts were measured in HEK293 cells using RT-qPCR with relative mRNA expression calculated by comparison to the control sample in which no crRNA is expressed. (G) Activities of dLbCpf1-DmrA(×4) and DmrC-VPR fusions or with dLbCpf1-DmrA(×4) and DmrC-p65 fusions with sets of three crRNAs expressed from a multiplex transcript or from individual transcripts on the HBB, AR, or NPY1R endogenous gene promoters. […]

NPY1R = assay: RT-qPCR activation of endogenous NPY1R gene promoter in HEK293 cells; conditions: single crRNA
Experimental: as §1, §2

AR = assay: RT-qPCR activation of endogenous AR gene promoter in HEK293 cells; conditions: bi-partite, with dLbCpf1 fusions harboring two, three or four DmrA domains, single crRNA
Experimental: as §1
(A) Schematic of an expression cassette designed to express multiple gRNAs encoded on a single transcript. The arrows indicate cleavage sites being processed by the RNase activity of dLbCpf1. (B) Schematic illustrating multiplex expression of three crRNAs each targeted to a different endogenous gene promoter in a single cell. […] Transcripts were measured in HEK293 cells using RT-qPCR with relative mRNA expression calculated by comparison to the control sample in which no crRNA is expressed. […] RNA expression was measured by RT-qPCR and relative expression shown was calculated by comparison to a control sample in which no crRNA is expressed. […] Transcripts were measured in HEK293 cells using RT-qPCR with relative mRNA expression calculated by comparison to the control sample in which no crRNA is expressed. […]

HBB, AR, and NPY1R = assay: Simultaneous (multiplex) activation of three endogenous genes in HEK293 cells, RT-qPCR; conditions: multiplex transcript vs single crRNA, HEK293, across the dLbCpf1-based activators
Source text: (A) Schematic of an expression cassette designed to express multiple gRNAs encoded on a single transcript. The arrows indicate cleavage sites being processed by the RNase activity of dLbCpf1. (B) Schematic illustrating multiplex expression of three crRNAs each targeted to a different endogenous gene promoter in a single cell. (C) Simultaneous activation of three endogenous human genes using crRNAs expressed from a multiplex transcript or from individual transcripts with dLbCpf1-VPR direct fusions (left panel), dLbCpf1-DmrA(×4) and DmrC-VPR fusions (middle panel), and dLbCpf1-DmrA(×4) and DmrC-p65 fusions (right panel). Transcripts were measured in HEK293 cells using RT-qPCR with relative mRNA expression calculated by comparison to the control sample in which no crRNA is expressed. […] RNA expression was measured by RT-qPCR and relative expression shown was calculated by comparison to a control sample in which no crRNA is expressed. […] Transcripts were measured in HEK293 cells using RT-qPCR with relative mRNA expression calculated by comparison to the control sample in which no crRNA is expressed. […] Transcripts were measured in HEK293 cells using RT-qPCR with relative mRNA expression calculated by comparison to the control sample in which no crRNA is expressed. […] Cells were collected at various time points and relative mRNA expression levels were measured by RT-qPCR compared to a negative control. […]

[1] = bi-partite with dLbCpf1-DmrA fusions
[2] = bi-partite, with dLbCpf1 fusions harboring two, three or four DmrA domains

Row | Molecule | dependence of maximal activation on A/C heterodimerizer drug (HBB; [1]) | maximum level of activation relative to direct dLbCpf1-VPR fusions (HBB; [1]) | activation of transcription (HBB; [2]) | dependence of maximal activation on A/C heterodimerizer drug (NPY1R; [1]) | maximum level of activation relative to direct dLbCpf1-VPR fusions (NPY1R; [1]) | activation of transcription (NPY1R; [2]) | activation of transcription (AR) | magnitude of activation somewhat lower than with expression of a single crRNA (HBB, AR, and NPY1R) [%]
1 | DmrC-VPR: CAG-DmrC-NLS-FLAG-VPR; DmrC dimerization domain fused to VPR activator (SEQ ID NO: 49) | dependent on the presence of the A/C heterodimerizer drug | approximately half | activation | dependent on the presence of the A/C heterodimerizer drug | approximately half | activation | lack of an effect | 
2 | multiplex crRNAs: three LbCpf1 crRNAs (HBB, AR, NPY1R) encoded on a single U6-driven transcript (SEQ ID NO: 58) (nucleic acid, misc_feature 1..397 crRNAs from Figure 2b) guide: GAGGGCCTATTTCCCATGATTCCTTCATATTTGCATATACGATACAAGGCTGTTAGAGAGATAATTAGAATTAATTTGACTGTAAACACAAAGATATTAGTACAAAATACGTGACGTAGAAAGTAATAATTTCTTGGGTAGTTTGCAGTTTTAAAATTATGTTTTAAAATGGACTATCATATGCTTACCGTAACTTGAAAGTATTTCGATTTCTTGGCTTTATATATCTTGTGGAAAGGACGAAACACCGAATTTCTACTAAGTGTAGATTACTGATGGTATGGGGCCAAAATTTCTACTAAGTGTAGATCTCTAGGAACCCTCAGCCCCAATTTCTACTAAGTGTAGATAAGCCTCGGGAAACTGCCCTAATTTCTACTAAGTGTAGATTTTTTTT |  |  |  |  |  |  |  | 18 to 55
